The term melting point denotes the temperature, or range, at which the solid turns liquid.

Data on 64 molecules can be found in a melting point compilation (Tetko et al.; mined from patent text by program, amines drawn as free bases though some values may be those of a salt).

Take `CCc1cccc(CC)c1NC(=O)N(CC1CCCCC1)C1CCC(c2ccccc2)CC1` (centres undefined): the melting point is 166 to 168 °C.
To `COc1ccc(N2CCN(c3c(C)c(C)c4c(c3C)C(O)(c3ccco3)C(C)(C)O4)CC2)cc1` (centres undefined) belongs 111 to 112 °C; to `O=Cc1ccc(CCBr)cc1`, 49 to 52 °C.
To `COC(=O)c1ccc(CN2CCc3ccc(S(=O)(=O)Nc4cccc(Cl)c4)cc3C2)o1` belongs 167 to 168 °C; to `CC(=O)Nc1nc(Cl)c2c(ncn2COC(COC(C)C)COC(C)C)n1`, 73 to 75 °C; to `N#CSc1ccc(O)cc1Br`, 91 to 92 °C.
The molecule `Cc1oc(-c2ccccc2)nc1CCOc1ccc(/C=C/C=C/CO)cc1` returned a melting point of 132 to 133 °C.
On to `COCC(COC)(Cc1ccccc1)Cc1ccccc1`, for which the melting point was 95 °C.
For `O=C(C(=O)c1cccc(Br)c1)c1ccccc1`, the melting point fell in the range of 78 to 82 °C.
Under `CC1(C)CC(=O)OC1CC(=O)c1ccc(Cl)cc1` (centres undefined) stands 76 to 80 °C; under `CCNc1cncc(C(=NCCc2ccccc2Cl)NC#N)c1`, 168 °C.
Under `Cc1cc(S)n2nc(S(=O)(=O)O)nc2n1` stands 254 to 256 °C.
To `O=C(O)c1ncn2c1CN=C(c1ccccc1Br)c1cc(F)ccc1-2` belongs 280 to 285 °C; to `Cc1cc(SCc2cccc3nc(-c4ccc(C(F)(F)F)cc4)sc23)ccc1OCC(=O)O`, 193 to 196 °C.
`COc1ccccc1OCCNCCCc1c[nH]c2ccc(F)cc12` returned a melting point of 125 to 126 °C.
Under `CCCCC1(CCCC)CS(=O)(=O)c2ccc(N(C)C)cc2C(c2ccc(OCc3cccnc3CCC(=O)O)cc2)C1O` (centres undefined) stands 105 to 107 °C; under `CCCN(CCCCNC(=O)N1CCN(c2ccccc2)CC1)C1CCc2ncsc2C1` (centres undefined), 120 °C; under `Nn1cc(C(=O)NCc2ccc(Cl)cc2)c(=O)c2cc(CCCO)ccc21`, 187 to 188 °C.
Under `COC(=O)Cc1ccc(C(=O)OC)cn1` stands 56 to 57 °C; under `COC(=O)C(C)c1ccc(-c2ccccc2)c(O)c1` (centres undefined), 106 to 108 °C; under `CCCC(CCC)(CCC)C(N)=O`, 69 °C.
Under `N#Cc1ccc2ccnc(N)c2c1` stands 183 to 186 °C; under `O=C(O)CCCN(C(=O)c1ccc(Cl)cc1)c1ccccc1-c1ccccc1`, 135 to 137 °C; under `CC(C)OC(=O)Nc1cccc(-c2ccnc3c(C(=O)c4ccccc4)cnn23)c1`, 116 to 118 °C.
For the molecule `COc1ccc(S(=O)(=O)N2CSCC2=O)cc1`, the melting point lay in the range of 129 to 130 °C.
Under `CCCc1c(OCCCCCCc2cccc(OCCCCCO)c2CCC(=O)O)ccc2c1OCCC2=O` stands 102 to 103 °C; under `COC(=O)c1cn2c(-c3ccc(-c4ccccc4)cc3)csc2n1`, 186 to 188 °C; under `C=CCOC(=O)c1cccc(NC(=O)NCC(=O)N(CC(=O)OC(C)(C)C)c2ccccc2C(=O)c2ccccc2)c1`, 105 to 107 °C.
To `O=c1[nH]c(COc2ccc(Cl)c(Cl)c2)nc2nccnc12` belongs 285 to 287 °C; to `COC(OC)C1CN=C(c2cc3cccc(NS(=O)(=O)c4ccccn4)c3[nH]2)S1` (centres undefined), 153 °C.
To `NS(=O)(=O)c1ccc(N2CCN(CCC3C=Cc4ccccc43)CC2)cc1` (centres undefined) belongs 181 °C.
Turning to `O=C1CCC(N2Cc3c(OCc4cc(CN5CCOCC5)co4)cccc3C2=O)C(=O)N1` (centres undefined), the melting point was 168 to 170 °C.
Under `CCc1ccc2c3c(ccc(C=O)c13)-c1ccccc1-2` stands 114 to 116 °C; under `CS(=O)(=O)c1ccc(-c2cc(=O)cc(C(=O)O)o2)cc1`, 269 to 271 °C; under `CC(C)(C)OC(=O)NCCCCC(N)C(=O)Nc1ccccc1` (centres undefined), 72 to 74.5 °C.
Under `COC1=NS(=O)(=O)N(Cc2ccccc2)C(N)=N1` stands 141 to 144 °C.
Under `CCOC(=O)c1sc(Cl)nc1-c1ccc(F)cc1` stands 113 to 114 °C; under `CC(C)(Cc1ccccc1)C(NC(=O)c1ccc(Cl)cc1)Nc1c(Nc2cncc(C(F)(F)F)c2)c(=O)c1=O` (centres undefined), 194 to 195 °C.
`Cn1c(C(F)(F)F)cc(C#N)c1-c1ccc2ccccc2c1` returned a melting point of 134 °C.
To `O=C1NC(=O)c2cc(NC3CCCCC3)c(NC3CCCCC3)cc21` belongs 170 to 175 °C; to `COC(=O)CCCc1cc2nc(Cl)ccc2n1S(=O)(=O)c1cccc2nsnc12`, 112 °C.
Under `CS(=O)c1cc2ccccc2[nH]1` (centres undefined) stands 140 to 144 °C; under `C=CCN(C)C(=O)Cn1c(-c2ccc(Cl)cc2)nc2cccnc21`, 124 to 127 °C.
Turning to `Cc1c(C(Cl)=Cc2ccc(C(F)(F)F)cc2)ccc2nc(N)nc(N)c12`, the melting point is over 300 °C.
To `COc1c(Cl)c(-c2ccc(C(C)C)cc2)cc2oc(=O)c(C)c(C)c12` belongs 168 °C.
To `Cc1ccc(CNc2cccc3c2C(=O)N(C2CCC(=O)NC2=O)C3=O)o1` (centres undefined) belongs 305 to 307 °C.
To `CCOC(=O)c1c(SCC(=O)COC(C)=O)nc2c(F)c(F)c(F)cc2c1O` belongs 175 to 180 °C.
In turn, `Cc1ccc(Oc2ccc(C(=N)NN)cc2)c(O)c1` had a melting point of over 260 °C.
To `O=C(O)CSc1cccc(CNC(=O)C2Cc3ccccc3N2S(=O)(=O)c2ccc(-c3cccc(C(F)(F)F)c3)cc2)c1` (centres undefined) belongs 75 °C.
To `CC(C)CC(=O)Nc1cccc(-c2ccnc3c(-c4cccs4)cnn23)c1` belongs 148 to 150 °C; to `COc1cc(CCl)c(CCNC(=O)C(F)(F)F)cc1OC`, 140 °C; to `CC(c1oc2ccccc2c(=O)c1-c1cccc(F)c1)n1nc(-c2ccc(O)c(O)c2)c2c(N)ncnc21` (centres undefined), 193 to 195 °C.
Under `Cn1c(COc2ccc(CC3SC(=O)NC3=O)cc2)nc2ccc(Oc3cccc(NC(=O)Nc4ccc(C(F)(F)F)cc4)c3)cc21` (centres undefined) stands 192 to 194 °C.
Take `Oc1c2c(nn1-c1ccccn1)CCCC2`: the melting point fell in the range of 121 to 122 °C.
To `Cc1cc(Cl)ccc1OC(Cn1cncn1)C(=O)C(C)(C)C` (centres undefined) belongs 63 to 65 °C; to `OC1(c2cccn2Cc2ccccc2F)CCN(CCc2ccccc2)CC1`, 130 to 131 °C; to `CCN1CCN(CCCN2CC[C@H](NC(=O)c3cc(Cl)c(N)cc3OC)[C@H](OC)C2)C1=O` (relative stereo), 113 °C.
To `O=C(O)CCc1conc1-c1ccc(C(F)(F)F)cc1` belongs 173 to 174 °C.
To `CCOC(=O)C1=Cc2cc(C(C)=O)ccc2OC1C(F)(F)F` (centres undefined) belongs 101 to 103 °C.
In turn, `COc1cc(F)c2ncc(F)cc2c1` had a melting point of 122 °C.
As for `COc1cc2ncc(C(=O)O)c(Nc3cccc(Br)c3)c2cc1OC`, the melting point is 282 to 285 °C.
To `CC(=O)Nc1c(C(=O)c2cccc(O)c2)[nH]c2cc(Cl)ccc12` belongs 130 to 145 °C; to `COC(=O)c1nc(-c2ccc(Cl)c(OC)c2F)nc(N)c1C#C[Si](C)(C)C`, 126 to 128 °C; to `O=C(O)C1NCCc2c1[nH]c1ccc(F)cc21` (centres undefined), 237 to 238 °C.
